Non-standard residues stand in square brackets, D forms with d. Residues, ends and D or L forms follow the SMILES beside them. No end group written: not given here. Hyp = O=C(O)[C@@H]1C[C@@H](O)CN1
Conditions: for Tm^obs: peptide of Table 3, defined standard conditions; for experimentally observed Tm of Gly-Xaa1-Xaa2 tripeptide unit in a triple helix: host-guest peptide, (Gly-Pro-Hyp)8 host, c=1 mg/ml in phosphate-buffered saline, pH 7.0, heating rate 0.1° C./minute
Protocol: The propensity measurements for all 20 amino acid residues in the Xaa1 position in a Gly-Xaa1-Hyp context and all 20 amino acid residues in the Xaa2 position in a Gly-Pro-Xaa2 context were determined by measuring thermal stability of host-guest peptides (Persikov, et al. (2000) supra).
The Tm values of all host-guest peptides were measured under a set of standard conditions, with c=1 mg/ml in phosphate-buffered saline, pH 7.0, and with a heating rate average of 0.1° C./minute (Persikov, et al. (2004) supra).

Row | Compound | Tm^obs [°C] | experimentally observed Tm of Gly-Xaa1-Xaa2 tripeptide unit in a triple helix [°C] | decrease in stability relative to Gly-Pro-Hyp [°C]
1 | CC(=O)NCC(=O)N[C@@H](C)C(=O)N[C@@H](CCCNC(=N)N)C(=O)NCC(=O)N1CCC[C@H]1C(=O)N[C@@H](C)C(=O)NCC(=O)N1CCC[C@H]1C(=O)N[C@@H](CCC(N)=O)C(=O)NCC(=O)N1CCC[C@H]1C(=O)N[C@@H](CCCNC(=N)N)C(=O)NCC(=O)N[C@@H](CC(=O)O)C(=O)N[C@@H](CCCCN)C(=O)NCC(=O)N[C@@H](CCC(=O)O)C(=O)N[C@H](C(=O)NCC(=O)N1CCC[C@H]1C(=O)N1C[C@H](O)C[C@H]1C(=O)NCC(=O)N1CCC[C@H]1C(=O)N1C[C@H](O)C[C@H]1C(=O)NCC(=O)N1CCC[C@H]1C(=O)N1C[C@H](O)C[C@H]1C(=O)NCC(=O)N1CCC[C@H]1C(=O)N1C[C@H](O)C[C@H]1C(=O)NCC(=O)N[C@H](C(N)=O)C(C)C)[C@@H](C)O [T1-904, Ac-GAR-GPA-GPQ-GPR-GDK-GET-(GPO)4-GV-NH2] (Ac-GARGPAGPQGPRGDKGETGP[Hyp]GP[Hyp]GP[Hyp]GP[Hyp]GV-NH2) | 30.8 | – | –
2 | CC[C@H](C)[C@H](NC(=O)CNC(=O)[C@H](CO)NC(=O)[C@@H]1CCCN1C(=O)CNC(=O)[C@@H]1C[C@@H](O)CN1C(=O)[C@@H]1CCCN1C(=O)CNC(=O)[C@@H](NC(=O)[C@H](CCCNC(=N)N)NC(=O)CNC(=O)[C@H](C)NC(=O)[C@H](C)NC(=O)CNC(=O)[C@@H]1C[C@@H](O)CN1C(=O)[C@H](Cc1ccccc1)NC(=O)CNC(C)=O)[C@@H](C)O)C(=O)N[C@@H](CO)C(=O)NCC(=O)N1CCC[C@H]1C(=O)N1C[C@H](O)C[C@H]1C(=O)NCC(=O)N1CCC[C@H]1C(=O)N1C[C@H](O)C[C@H]1C(=O)NCC(=O)N1CCC[C@H]1C(=O)N1C[C@H](O)C[C@H]1C(=O)NCC(=O)N1CCC[C@H]1C(=O)N1C[C@H](O)C[C@H]1C(=O)NCC(=O)N[C@H](C(N)=O)C(C)C [T1A2-697, Ac-GFO-GAA-GRT-GPO-GPS-GIS-(GPO)4-GV-NH2] (Ac-GF[Hyp]GAAGRTGP[Hyp]GPSGISGP[Hyp]GP[Hyp]GP[Hyp]GP[Hyp]GV-NH2) | <4 | – | –
3 | CC[C@H](C)[C@H](NC(=O)CNC(=O)[C@H](CC(C)C)NC(=O)[C@@H]1CCCN1C(=O)CNC(=O)[C@@H]1C[C@@H](O)CN1C(=O)[C@H](C)NC(=O)CNC(=O)[C@@H]1C[C@@H](O)CN1C(=O)[C@@H]1CCCN1C(=O)CNC(C)=O)C(=O)N[C@@H](C)C(=O)NCC(=O)N[C@H](C(=O)N[C@H](C(=O)NCC(=O)N[C@@H](C)C(=O)N[C@@H](CCCNC(=N)N)C(=O)NCC(=O)N[C@@H](CC(C)C)C(=O)N[C@@H](C)C(=O)NCC(=O)N1CCC[C@H]1C(=O)N1C[C@H](O)C[C@H]1C(=O)NCC(=O)N1CCC[C@H]1C(=O)N1C[C@H](O)C[C@H]1C(=O)NCC(=O)N1CCC[C@H]1C(=O)N1C[C@H](O)C[C@H]1C(=O)NCC(=O)N1CCC[C@H]1C(=O)N1C[C@H](O)C[C@H]1C(=O)NCC(=O)NCC(N)=O)[C@@H](C)O)[C@@H](C)CC [T3-772, Ac-GPO-GAO-GPL-GIA-GIT-GAR-GLA-(GPO)4-GG-NH2] (Ac-GP[Hyp]GA[Hyp]GPLGIAGITGARGLAGP[Hyp]GP[Hyp]GP[Hyp]GP[Hyp]GG-NH2) | <4 | – | –
4 | CC(=O)NCC(=O)N1CCC[C@H]1C(=O)N[C@@H](CCCNC(=N)N)C(=O)NCC(=O)N[C@@H](CC(N)=O)C(=O)N[C@@H](CCCNC(=N)N)C(=O)NCC(=O)N[C@@H](CCC(=O)O)C(=O)N[C@@H](CCCNC(=N)N)C(=O)NCC(=O)N[C@@H](CO)C(=O)N[C@@H](CCC(=O)O)C(=O)NCC(=O)N[C@@H](CO)C(=O)N1C[C@H](O)C[C@H]1C(=O)NCC(=O)N[C@@H](Cc1c[nH]cn1)C(=O)N1C[C@H](O)C[C@H]1C(=O)NCC(=O)N[C@@H](CCC(N)=O)C(=O)N1C[C@H](O)C[C@H]1C(=O)NCC(=O)N1CCC[C@H]1C(=O)N1C[C@H](O)C[C@H]1C(=O)NCC(=O)N1CCC[C@H]1C(=O)N1C[C@H](O)C[C@H]1C(=O)NCC(=O)N[C@@H](C)C(=O)N1C[C@H](O)C[C@H]1C(=O)NCC(=O)N[C@H](C(N)=O)C(C)C [T3-997, Ac-GPR-GNR-GER-GSE-GSO-GHO-GQO-GPO-GPO-GAO-GV-NH2] (Ac-GPRGNRGERGSEGS[Hyp]GH[Hyp]GQ[Hyp]GP[Hyp]GP[Hyp]GA[Hyp]GV-NH2) | <4 | – | –
5 | CC(=O)NCC(=O)N[C@@H](CCC(=O)O)C(=O)N[C@@H](CCCNC(=N)N)C(=O)NCC(=O)N[C@@H](CCC(=O)O)C(=O)N[C@@H](CCCNC(=N)N)C(=O)NCC(=O)N[C@@H](CCC(=O)O)C(=O)N[C@@H](CCCCN)C(=O)NCC(=O)N[C@@H](CCC(=O)O)C(=O)N[C@@H](CCCNC(=N)N)C(=O)NCC(=O)N[C@@H](CCC(=O)O)C(=O)N[C@@H](CCC(N)=O)C(=O)NCC(=O)N[C@@H](CCCNC(=N)N)C(=O)N[C@@H](CC(=O)O)C(=O)NCC(=O)N1CCC[C@H]1C(=O)N1C[C@H](O)C[C@H]1C(=O)NCC(=O)N1CCC[C@H]1C(=O)N1C[C@H](O)C[C@H]1C(=O)NCC(=O)N1CCC[C@H]1C(=O)N1C[C@H](O)C[C@H]1C(=O)NCC(=O)N1CCC[C@H]1C(=O)N1C[C@H](O)C[C@H]1C(=O)NCC(=O)N[C@H](C(N)=O)C(C)C [T7-2058, Ac-GER-GER-GEK-GER-GEQ-GRD-(GPO)4-GV-NH2] (Ac-GERGERGEKGERGEQGRDGP[Hyp]GP[Hyp]GP[Hyp]GP[Hyp]GV-NH2) | 23.2 | – | –
6 | Gly-Ala-[Hyp] | – | 41.7 | –
7 | Gly-Gly-Ala | – | 26.0 | –
8 | Gly-Gly-Phe | – | 19.7 | –
9 | Gly-Pro-Ala | – | 40.9 | 6.4
10 | Gly-Pro-Arg | – | 47.2 | ~0
11 | Gly-Pro-Gln | – | 41.3 | –
12 | Gly-Pro-Glu | – | 39.7 | –
13 | Gly-Pro-Gly | – | 32.9 | –
14 | Gly-Pro-Lys | – | 36.8 | –
15 | Gly-Pro-Pro | – | 45.5 | –
16 | Gly-Pro-Ser | – | 35.0 | –
17 | Gly-Pro-Val | – | 40.0 | –
18 | Gly-Pro-[Hyp] | – | – | 21

From patent US8280710B2, “Method for determining thermal stability of collagen or collagen-like peptide” (University of Medicine and Dentistry of New Jersey, priority 2005, dated 2012)
